The values that follow come from ChEMBL document CHEMBL4715772, “A facile stereoselective synthesis of dispiro-indeno pyrrolidine/pyrrolothiazole-thiochroman hybrids and evaluation of their antimycobacterial, anticancer and AchE inhibitory activities” (Bioorg Med Chem, 2016).

Data set [1] has as its target Acetylcholinesterase (Homo sapiens, UniProt P22303). As to the kind of experiment: Inhibition of AChE (unknown origin) using acetylthiocholine chloride as substrate preincubated with enzyme for 15 mins followed by substrate addition by Ellman's method. (In general: Ellman's reagent forms a yellow product with free thiols.)
The subject of data set [2] is MCF7. Briefly: Antiproliferative activity against human MCF7 cells assessed as inhibition of cell proliferation incubated for 72 hrs by CellTiter-Glo assay. The conditions noted are these: MCF7, 72 h. The data set is classed as functional, cell-based. (In general: ATP-based viability assays read luminescence as a measure of living cells.)
Data set [3] has as its system MCF7. As to the kind of experiment: Antiproliferative activity against human MCF7 cells assessed as inhibition of cell proliferation at 50 uM incubated for 72 hrs by CellTiter-Glo assay relative to control. The note with it: MCF7, read-out: INH. The class given is functional.
In data set [4] the test system is Mycobacterium tuberculosis. As to the kind of experiment: Antimycobacterial activity against Mycobacterium tuberculosis H37Rv assessed as inhibition of bacterial growth by microdilution alamar blue broth assay. The class given is functional, organism-based.
A short description of data set [5]: Cytotoxicity against African green monkey Vero cells assessed as cell viability after 72 hrs by MTT assay. The data set is classed as cell-based. The conditions noted are these: chlorocebus sabaeus, read-out: MNCC.
Data set [6] relates to HT-29. As to the kind of experiment: Antiproliferative activity against human HT-29 cells assessed as inhibition of cell proliferation incubated for 72 hrs by CellTiter-Glo assay. The conditions noted are these: HT-29, 72 h. The class given is functional, cell-based.

Converted amounts (≈) assume the structure as drawn. A value given as a limit tells only on which side of the number the result lay.

Sequence of Acetylcholinesterase (P22303 whole entry): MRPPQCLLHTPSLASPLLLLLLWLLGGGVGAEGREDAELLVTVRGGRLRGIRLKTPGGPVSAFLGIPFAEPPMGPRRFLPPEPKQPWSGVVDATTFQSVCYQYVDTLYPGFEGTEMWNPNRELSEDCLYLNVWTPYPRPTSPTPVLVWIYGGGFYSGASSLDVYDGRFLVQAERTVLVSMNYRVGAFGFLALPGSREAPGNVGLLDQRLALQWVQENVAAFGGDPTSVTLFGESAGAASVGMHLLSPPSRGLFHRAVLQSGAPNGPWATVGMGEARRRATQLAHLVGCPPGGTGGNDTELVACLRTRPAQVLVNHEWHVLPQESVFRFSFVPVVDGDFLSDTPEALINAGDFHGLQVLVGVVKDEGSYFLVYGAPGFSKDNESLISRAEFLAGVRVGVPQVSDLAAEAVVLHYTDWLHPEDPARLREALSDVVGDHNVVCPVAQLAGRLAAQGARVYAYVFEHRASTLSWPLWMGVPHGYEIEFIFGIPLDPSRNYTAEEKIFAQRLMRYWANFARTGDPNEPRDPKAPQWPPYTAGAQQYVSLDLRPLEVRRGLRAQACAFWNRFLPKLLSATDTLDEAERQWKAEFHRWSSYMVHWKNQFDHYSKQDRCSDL

One may read the IC50 as the midpoint of a concentration-inhibition curve. Broadly, the IC90 is the concentration at which the effect reaches the 90% level. In general, MIC refers to the lowest concentration found to suppress growth. As to `COc1ccc([C@@H]2[C@H]3CSCN3C3(C(=O)c4ccccc4C3=O)[C@]23CSc2ccccc2C3=O)cc1`, the IC50 in data set [1] came to 1.1 µM; in data set [2] it was 86 µM; in data set [4], 12.9 µM; in data set [6], 97.2 µM. Further, the inhibition at 50 µM in data set [3] is less than 50%. Also, the IC90 in data set [4] came out at 24.6 µM. Also, the minimum inhibitory concentration (MIC) in data set [4] came to 50 µM (≈ 25.7 µg/mL). Besides, in data set [5], the MNTC at 72 h is greater than 6.25 µg/mL.
Consider `O=C1c2ccccc2C(=O)C12N1CSC[C@@H]1[C@@H](c1ccc(Br)cc1)[C@@]21CSc2ccccc2C1=O`, for which the IC50 in data set [1] was determined as 34.6 µM; in data set [2], 92.9 µM; in data set [4], 21.9 µM; in data set [6], 86.8 µM. The inhibition at 50 µM in data set [3] is less than 50%. In data set [4], the IC90 was found to be 47.9 µM. Besides, the MIC in data set [4] is 50 µM (≈ 28.1 µg/mL). Besides, the MNTC at 72 h in data set [5] is greater than 6.25 µg/mL.
`O=C1c2ccccc2C(=O)C12N1CSC[C@@H]1[C@@H](c1ccc(Cl)cc1)[C@@]21CSc2ccccc2C1=O`: the 50% inhibitory concentration (IC50) in data set [1] came out at 21.3 µM; in data set [2], 104 µM; in data set [4] it was 7.2 µM; in data set [6] it was 76.7 µM. The inhibition at 50 µM in data set [3] was less than 50%. In data set [4], the IC90 turned out to be 15.5 µM. Further, in data set [4], the MIC was determined as 50 µM (≈ 25.9 µg/mL). Further, the MNTC at 72 h in data set [5] is greater than 6.25 µg/mL.
On to `CN1C[C@@H](c2ccc(Cl)cc2)[C@@]2(CSc3ccccc3C2=O)C12C(=O)c1ccccc1C2=O`, for which the IC50 in data set [1] was determined as 22.2 µM; in data set [2], 97 µM; in data set [4], 8.46 µM; in data set [6], 94 µM. In data set [3], the inhibition at 50 µM was less than 50%. Also, in data set [4], the IC90 amounted to 12.4 µM. Besides, in data set [4], the MIC worked out at 50 µM (≈ 23.7 µg/mL). Also, the MNTC at 72 h in data set [5] is greater than 6.25 µg/mL.
For the compound `O=C1c2ccccc2C(=O)C12N1CSC[C@@H]1[C@@H](c1ccccc1Br)[C@@]21CSc2ccccc2C1=O`, in data set [5], the MNTC at 72 h is greater than 6.25 µg/mL.
As to `O=C1c2ccccc2C(=O)C12N1CSC[C@@H]1[C@@H](c1cccc3ccccc13)[C@@]21CSc2ccccc2C1=O`, the IC50 is 16.5 µM in data set [1], 102 µM in data set [2], 28.6 µM in data set [4] and 93.4 µM in data set [6]. In data set [3], the inhibition at 50 µM is less than 50%. Further, in data set [4], the IC90 worked out at 47.7 µM. Also, the MIC in data set [4] came out at 50 µM (≈ 26.7 µg/mL). Further, in data set [5], the MNTC at 72 h is greater than 6.25 µg/mL.
In the case of `CN1CC(c2ccccc2Br)[C@@]2(CSc3ccccc3C2=O)C12C(=O)c1ccccc1C2=O` (single isomer, unassigned), the IC50 in data set [1] turned out to be 27.1 µM; in data set [2] it was 92.9 µM; in data set [4], 18.3 µM; in data set [6] it was 86.8 µM. The inhibition at 50 µM in data set [3] was less than 50%. In addition, in data set [4], the 90% effect concentration (IC90) amounted to 36.5 µM. Moreover, the minimal inhibitory concentration (MIC) in data set [4] was determined as 50 µM (≈ 25.9 µg/mL). The MNTC at 72 h in data set [5] was greater than 6.25 µg/mL.
Take `O=C1c2ccccc2C(=O)C12N1CSC[C@@H]1[C@@H](c1cccs1)[C@@]21CSc2ccccc2C1=O`: the half-inhibitory concentration (IC50) in data set [1] worked out at 19.1 µM; in data set [2], 97 µM; in data set [4], 12.9 µM; in data set [6], 94 µM. Further, the inhibition at 50 µM in data set [3] was less than 50%. The IC90 in data set [4] was found to be 24.6 µM. In data set [4], the minimum inhibitory concentration (MIC) was found to be 50 µM (≈ 24.5 µg/mL). In addition, the MNTC at 72 h in data set [5] is greater than 6.25 µg/mL.
Take `CN1C[C@@H](c2cccc(F)c2)[C@@]2(CSc3ccccc3C2=O)C12C(=O)c1ccccc1C2=O`: the IC50 in data set [1] came out at 24.6 µM; in data set [2], 108 µM; in data set [4], 4.28 µM; in data set [6] it was 82.1 µM. In data set [3], the inhibition at 50 µM was less than 50%. Besides, the IC90 in data set [4] stood at 9.86 µM. Further, the MIC in data set [4] is 25 µM (≈ 11.4 µg/mL). The MNTC at 72 h in data set [5] is greater than 6.25 µg/mL.
Consider `CN1C[C@@H](c2ccccc2)[C@@]2(CSc3ccccc3C2=O)C12C(=O)c1ccccc1C2=O`, for which the 50% inhibitory concentration (IC50) in data set [1] came to 11.1 µM; in data set [2] it was 104 µM; in data set [4] it was 15.2 µM; in data set [6], 86.7 µM. Further, the inhibition at 50 µM in data set [3] is less than 50%. In data set [4], the concentration for an effect of 90% (IC90) was determined as 27.9 µM. In data set [4], the MIC is 100 µM (≈ 44 µg/mL). The MNTC at 72 h in data set [5] is greater than 6.25 µg/mL.
Regarding `CN1C[C@@H](c2ccc(Br)cc2)[C@@]2(CSc3ccccc3C2=O)C12C(=O)c1ccccc1C2=O`, the IC50 was found to be 28.3 µM in data set [1], 101 µM in data set [2], 29.9 µM in data set [4] and 88.1 µM in data set [6]. In addition, in data set [3], the inhibition at 50 µM is less than 50%. Further, the concentration for an effect of 90% (IC90) in data set [4] came to 41.9 µM. The MIC in data set [4] was 50 µM (≈ 25.9 µg/mL). Also, the MNTC at 72 h in data set [5] was greater than 6.25 µg/mL.
On to `COc1cccc2c1C(=O)c1c(O)c3c(c(O)c1C2=O)C[C@@](O)(C(=O)CO)C[C@@H]3O[C@H]1C[C@H](N)[C@H](O)[C@H](C)O1` [DOXORUBICIN], for which, in data set [6], the half-inhibitory concentration (IC50) amounted to 12.9 µM.
With `CN1C[C@@H](c2cccs2)[C@@]2(CSc3ccccc3C2=O)C12C(=O)c1ccccc1C2=O`, the 50% inhibitory concentration (IC50) amounted to 21.2 µM in data set [1], 123 µM in data set [2], 25.9 µM in data set [4] and 95.9 µM in data set [6]. Moreover, the inhibition at 50 µM in data set [3] was less than 50%. Moreover, the IC90 in data set [4] was 44.6 µM. The MIC in data set [4] was 100 µM (≈ 44.6 µg/mL). In addition, the MNTC at 72 h in data set [5] was greater than 6.25 µg/mL.
As for `O=C1c2ccccc2C(=O)C12N1CSC[C@@H]1[C@@H](c1ccc(F)cc1)[C@@]21CSc2ccccc2C1=O`, the IC50 in data set [1] is 19.8 µM; in data set [2], 116 µM; in data set [4], 13.2 µM; in data set [6], 95.9 µM. For the same compound, in data set [3], the inhibition at 50 µM was less than 50%. Also, the concentration for an effect of 90% (IC90) in data set [4] was determined as 25.9 µM. The MIC in data set [4] came to 50 µM (≈ 25.1 µg/mL). Further, the MNTC at 72 h in data set [5] was greater than 6.25 µg/mL.
For the compound `NNC(=O)c1ccncc1` [ISONIAZID], in data set [4], the IC90 was determined as 0.29 µM and the MIC was 0.31 µM (≈ 0.0425 µg/mL). In addition, the MNTC at 72 h in data set [5] was greater than 6.25 µg/mL.
As to `CCc1nc(N)nc(N)c1-c1ccc(Cl)cc1` [PYRIMETHAMINE], in data set [4], the MIC amounted to 100 µM (≈ 24.9 µg/mL). The MNTC at 72 h in data set [5] was greater than 6.25 µg/mL.
As for `CC(C)c1ccc([C@@H]2[C@H]3CSCN3C3(C(=O)c4ccccc4C3=O)[C@]23CSc2ccccc2C3=O)cc1`, the half-maximal inhibitory concentration (IC50) in data set [1] was found to be 28.3 µM; in data set [2], 91.8 µM; in data set [4] it was 45 µM; in data set [6], 93.4 µM. For the same compound, the inhibition at 50 µM in data set [3] was less than 50%. Also, the 90% effect concentration (IC90) in data set [4] came out at 76.4 µM. In addition, the MIC in data set [4] was determined as 100 µM (≈ 52.6 µg/mL). The MNTC at 72 h in data set [5] is greater than 6.25 µg/mL.
Turning to `Cc1ccc([C@@H]2[C@H]3CSCN3C3(C(=O)c4ccccc4C3=O)[C@]23CSc2ccccc2C3=O)cc1`, the IC50 in data set [1] was 7.11 µM; in data set [2], 107 µM; in data set [4], 28.6 µM; in data set [6], 90 µM. Besides, in data set [3], the inhibition at 50 µM is less than 50%. For the same compound, the 90% effect concentration (IC90) in data set [4] was found to be 47.7 µM. The minimal inhibitory concentration (MIC) in data set [4] was determined as 50 µM (≈ 24.9 µg/mL). The MNTC at 72 h in data set [5] was greater than 6.25 µg/mL.
Turning to `CC[C@@H](CO)NCCN[C@@H](CC)CO` [ETHAMBUTOL], in data set [4], the IC50 was less than 1.56 µM and the minimal inhibitory concentration (MIC) is 12.5 µM (≈ 2.55 µg/mL). In addition, in data set [5], the MNTC at 72 h is greater than 6.25 µg/mL.
Take `O=C1c2ccccc2C(=O)C12N1CSC[C@@H]1[C@@H](c1ccccc1)[C@@]21CSc2ccccc2C1=O`: the concentration for half-maximal inhibition (IC50) is 12.9 µM in data set [1], 93.5 µM in data set [2], 16.3 µM in data set [4] and 92.2 µM in data set [6]. Also, the inhibition at 50 µM in data set [3] was less than 50%. Further, the IC90 in data set [4] amounted to 25.5 µM. For the same compound, the MIC in data set [4] stood at 100 µM (≈ 48.4 µg/mL). Moreover, the MNTC at 72 h in data set [5] is greater than 6.25 µg/mL.
For the compound `N[C@@H]1CONC1=O` [CYCLOSERINE], the MIC in data set [4] was determined as 25 µM (≈ 2.55 µg/mL). In addition, the MNTC at 72 h in data set [5] is greater than 6.25 µg/mL.
